The record followed here is ChEMBL document CHEMBL1137856, “The pharmacophore hypotheses of I(Kr) potassium channel blockers: novel class III antiarrhythmic agents” (Bioorg Med Chem Lett, 2004).

The structures appear in SMILES notation.

Chain of Voltage-gated inwardly rectifying potassium channel KCNH2 (Q12809 whole entry): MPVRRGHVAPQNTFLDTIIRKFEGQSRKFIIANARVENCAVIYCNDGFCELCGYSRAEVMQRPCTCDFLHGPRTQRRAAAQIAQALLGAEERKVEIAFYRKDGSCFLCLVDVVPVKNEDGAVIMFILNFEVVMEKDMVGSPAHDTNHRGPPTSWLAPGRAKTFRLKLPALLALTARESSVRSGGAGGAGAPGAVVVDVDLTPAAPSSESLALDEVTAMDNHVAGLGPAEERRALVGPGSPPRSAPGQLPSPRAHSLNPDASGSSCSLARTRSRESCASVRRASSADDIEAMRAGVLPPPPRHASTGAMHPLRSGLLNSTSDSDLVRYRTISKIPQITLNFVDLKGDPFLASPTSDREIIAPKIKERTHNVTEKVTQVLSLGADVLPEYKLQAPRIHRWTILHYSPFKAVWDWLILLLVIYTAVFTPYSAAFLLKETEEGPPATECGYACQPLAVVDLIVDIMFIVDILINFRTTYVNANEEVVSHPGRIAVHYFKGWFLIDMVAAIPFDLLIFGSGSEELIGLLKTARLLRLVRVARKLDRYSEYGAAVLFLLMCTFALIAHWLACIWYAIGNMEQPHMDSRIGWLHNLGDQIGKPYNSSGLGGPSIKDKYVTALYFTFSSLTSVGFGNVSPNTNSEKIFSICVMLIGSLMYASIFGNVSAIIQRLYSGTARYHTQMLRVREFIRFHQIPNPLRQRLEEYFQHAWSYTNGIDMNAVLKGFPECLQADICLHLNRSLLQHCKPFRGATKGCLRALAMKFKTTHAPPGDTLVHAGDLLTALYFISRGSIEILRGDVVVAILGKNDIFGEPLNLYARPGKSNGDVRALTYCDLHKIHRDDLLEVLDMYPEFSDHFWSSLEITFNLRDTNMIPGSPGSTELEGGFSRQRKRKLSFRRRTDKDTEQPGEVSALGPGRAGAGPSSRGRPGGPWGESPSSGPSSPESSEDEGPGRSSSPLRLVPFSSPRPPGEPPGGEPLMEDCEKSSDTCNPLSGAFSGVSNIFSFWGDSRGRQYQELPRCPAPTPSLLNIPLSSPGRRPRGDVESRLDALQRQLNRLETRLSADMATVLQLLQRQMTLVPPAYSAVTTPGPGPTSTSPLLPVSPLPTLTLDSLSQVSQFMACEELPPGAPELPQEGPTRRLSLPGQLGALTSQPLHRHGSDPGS

The assay addresses Voltage-gated inwardly rectifying potassium channel KCNH2 (Homo sapiens, UniProt Q12809). Briefly: Inhibitory concentration against IKr potassium channel.
What is called IC50 is the concentration at which inhibition is half-maximal. Low readings indicate higher potency, high ones lower potency. The molecule `CCCCCCCN(CC)CCCCc1ccc([N+](=O)[O-])cc1` returned an IC50 of 0.01 µM.

Molecule `COc1ccc(CCNCCCNC(=O)c2ccc([N+](=O)[O-])cc2)cc1OC` came in with an IC50 of 0.42 µM.

On to `COc1cc2c(cc1OC)C(Cc1ccc(O)c(Oc3ccc(C[C@@H]4c5cc(OC)c(OC)cc5CCN4C)cc3)c1)N(C)CC2` (single isomer, unassigned) [DAURICINE], for which the IC50 is 16 µM.

For the molecule `CCCNCC(O)COc1ccc(O)cc1C(=O)CCc1ccccc1` (stereo not drawn) [5-HYDROXY PROPAFENONE], the IC50 worked out at 40 µM.

Take `CN1CCN(CCCCN2C(=O)CN(/N=C/c3ccc(-c4ccc(Cl)cc4)o3)C2=O)CC1` [AZIMILIDE]: the IC50 is 0.4 µM.

`Nc1ccncc1` [DALFAMPRIDINE] yielded an IC50 of 4400 µM.

For the molecule `CCCCc1oc2ccc(NS(C)(=O)=O)cc2c1C(=O)c1ccc(OCCCN(CCCC)CCCC)cc1` [DRONEDARONE], half-maximal inhibition (IC50) was put at 3 µM.

As to `CCCCN(CCCC)CC(O)c1cc(Cl)cc2c1-c1ccc(Cl)cc1C2=Cc1ccc(Cl)cc1` (stereo not drawn) [LUMEFANTRINE], the IC50 was 8.1 µM.

In the case of `NCC(O)COc1ccccc1C(=O)CCc1ccccc1` (stereo not drawn) [N-DEPROPYL-PROPAPHENONE], the IC50 was 44 µM.

`CCC1(c2ccccc2)C(=O)NC(=O)NC1=O` [PHENOBARBITAL]: the IC50 was determined as 3000 µM.

For the molecule `COc1ccc(CN(CCN(C)C)c2ccccn2)cc1` [PYRILAMINE], half-maximal inhibition (IC50) was put at 1.1 µM.

For the molecule `COc1ccc(C2CCN(CC[C@H]3CCOc4ccccc43)CC2)cc1OC` [TERIKALANT], the IC50 was determined as 0.03 µM.

The molecule `COc1ccc(C(=O)N2CCN(c3ccc4c(c3)CCC(=O)N4)CC2)cc1OC` [VESNARINONE] registered an IC50 of 18 µM.
